In patent publication US20220340597A1, “HEXAHYDRO-1H-PYRAZINO[1,2-A]PYRAZINE COMPOUNDS FOR THE TREATMENT OF AUTOIMMUNE DISEASE” (Hoffmann-La Roche Inc., priority 2019, published 2022):

Key:
human TLR7 = biological target: T1, human TLR7 (Homo sapiens, UniProt Q9NYK1); test: HEK293-Blue-hTLR-7 cells assay; assay type: cell-based; conditions: HEK293-Blue-hTLR7 cells, R848 stimulation, 20 hrs, SEAP reporter; read-out: HEK/hTLR7 IC50
T1 construct: host or cells: HEK293 (HEK-Blue hTLR7)
T1 sequence (Q9NYK1 27-1049): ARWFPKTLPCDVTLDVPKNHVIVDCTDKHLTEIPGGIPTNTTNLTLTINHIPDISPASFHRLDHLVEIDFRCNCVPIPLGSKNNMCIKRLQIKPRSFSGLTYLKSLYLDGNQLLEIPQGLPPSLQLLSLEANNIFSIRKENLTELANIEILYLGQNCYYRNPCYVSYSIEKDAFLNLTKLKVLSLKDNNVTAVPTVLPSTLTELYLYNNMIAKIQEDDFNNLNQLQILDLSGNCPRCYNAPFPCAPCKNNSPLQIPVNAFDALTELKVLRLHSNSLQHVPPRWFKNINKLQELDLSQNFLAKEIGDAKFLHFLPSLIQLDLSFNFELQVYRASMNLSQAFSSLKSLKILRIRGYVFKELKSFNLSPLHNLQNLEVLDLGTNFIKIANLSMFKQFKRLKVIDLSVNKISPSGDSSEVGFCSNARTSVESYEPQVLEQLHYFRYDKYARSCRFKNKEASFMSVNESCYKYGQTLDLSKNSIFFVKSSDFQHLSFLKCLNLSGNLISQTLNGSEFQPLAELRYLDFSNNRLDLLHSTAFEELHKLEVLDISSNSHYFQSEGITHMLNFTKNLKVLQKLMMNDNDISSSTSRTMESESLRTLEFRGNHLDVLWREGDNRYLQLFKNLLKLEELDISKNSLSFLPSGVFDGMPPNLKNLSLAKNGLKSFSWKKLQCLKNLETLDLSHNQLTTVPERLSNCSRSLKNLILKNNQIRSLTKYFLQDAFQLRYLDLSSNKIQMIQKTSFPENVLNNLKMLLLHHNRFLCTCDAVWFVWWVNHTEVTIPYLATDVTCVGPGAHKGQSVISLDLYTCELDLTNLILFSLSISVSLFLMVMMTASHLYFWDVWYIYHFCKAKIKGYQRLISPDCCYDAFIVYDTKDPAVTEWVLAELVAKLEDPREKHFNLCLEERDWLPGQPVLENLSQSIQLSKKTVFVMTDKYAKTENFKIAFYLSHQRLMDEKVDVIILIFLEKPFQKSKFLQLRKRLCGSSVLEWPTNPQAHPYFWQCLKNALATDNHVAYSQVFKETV
Protocol: The following tests were carried out in order to determine the activity of the compounds of formula (I) and (Ia) in HEK293-Blue-hTLR-7/8/9 cells assay.
HEK293-Blue-hTLR-7 cells assay:
A stable HEK293-Blue-hTLR-7 cell line was purchased from InvivoGen (Cat. #: hkb-htlr7, San Diego, Calif., USA). These cells were originally designed for studying the stimulation of human TLR7 by monitoring the activation of NF-κB. A SEAP (secreted embryonic alkaline phosphatase) reporter gene was placed under the control of the […] minimal promoter fused to five NF-κB and AP-1-binding sites. The SEAP was induced by activating NF-κB and AP-1 via stimulating HEK-Blue hTLR7 cells with TLR7 ligands. Therefore, the reporter expression was declined by TLR7 antagonist under the stimulation of a ligand, such as R848 (Resiquimod), for incubation of 20 hrs. The cell culture supernatant SEAP reporter activity was determined using QUANTI-Blue™ kit (Cat. #: rep-qb1, Invivogen, San Diego, Calif., USA) at a wavelength of 640 nm, a detection medium that turns purple or blue in the presence of alkaline phosphatase.
Then 20 μL of the supernatant from each well was incubated with […] Quanti-blue substrate solution at 37° C. for 2 hrs and the absorbance was read at 620-655 nm using a spectrophotometer. The signaling pathway that TLR7 activation leads to downstream NF-κB activation has been widely accepted, and therefore similar reporter assay was modified for evaluating TLR7 antagonist.

human TLR8 = biological target: T2, human TLR8 (Homo sapiens, UniProt Q9NR97); test: HEK293-Blue-hTLR-8 cells assay
T2 sequence (Q9NR97 27-1041): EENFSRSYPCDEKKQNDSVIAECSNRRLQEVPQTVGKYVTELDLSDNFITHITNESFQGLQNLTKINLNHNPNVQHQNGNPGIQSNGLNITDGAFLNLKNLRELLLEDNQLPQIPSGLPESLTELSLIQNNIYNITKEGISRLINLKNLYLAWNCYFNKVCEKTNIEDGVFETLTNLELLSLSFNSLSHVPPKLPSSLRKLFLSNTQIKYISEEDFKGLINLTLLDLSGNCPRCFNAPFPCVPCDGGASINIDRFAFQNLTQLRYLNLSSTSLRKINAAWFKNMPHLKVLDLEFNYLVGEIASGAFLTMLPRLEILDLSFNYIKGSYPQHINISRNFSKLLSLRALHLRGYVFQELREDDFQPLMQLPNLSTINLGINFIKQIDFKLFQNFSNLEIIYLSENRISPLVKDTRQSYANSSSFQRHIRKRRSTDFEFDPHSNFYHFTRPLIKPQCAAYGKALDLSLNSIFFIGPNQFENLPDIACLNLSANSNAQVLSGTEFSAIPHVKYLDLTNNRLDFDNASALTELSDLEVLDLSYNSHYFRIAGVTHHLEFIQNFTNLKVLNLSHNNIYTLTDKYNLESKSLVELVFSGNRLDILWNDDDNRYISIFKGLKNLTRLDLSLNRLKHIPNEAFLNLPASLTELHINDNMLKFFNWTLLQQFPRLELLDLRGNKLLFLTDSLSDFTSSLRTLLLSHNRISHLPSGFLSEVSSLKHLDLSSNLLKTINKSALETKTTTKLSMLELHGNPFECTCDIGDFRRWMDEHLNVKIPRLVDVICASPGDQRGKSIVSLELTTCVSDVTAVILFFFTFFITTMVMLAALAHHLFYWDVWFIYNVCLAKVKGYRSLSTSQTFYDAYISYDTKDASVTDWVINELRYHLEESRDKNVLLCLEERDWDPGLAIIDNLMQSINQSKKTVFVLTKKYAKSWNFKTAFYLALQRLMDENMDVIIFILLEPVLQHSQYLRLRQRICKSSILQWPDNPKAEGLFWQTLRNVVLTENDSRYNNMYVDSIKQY

Row | SMILES | IC50 (human TLR7) [nM] | IC50 (human TLR8) [nM]
1 | CO[C@@H]1CN(c2ccc(CCN3CCN4[C@@H](C3)CN(c3ccc(C#N)c5ncccc35)C[C@H]4C)nc2)C[C@H]1N [Example 13, 5-[(4R,9aS)-8-[2-[5-[(3R,4R)-3-amino-4-methoxy-pyrrolidin-1-yl]-2-pyridyl]ethyl]-4-methyl-3,4,6,7,9,9a-hexahydro-1H-pyrazino[1,2-a]pyrazin-2-yl]quinoline-8-carbonitrile] | 26 | 9
2 | [2H]c1ccc2c(N3C[C@@H]4CN(c5ncc(N6C[C@@H]7C[C@H]6CN7)cc5C)CCN4[C@@H](C)C3)ccc(C#N)c2n1 [Example 111, 5-[(4S,9aR)-8-[5-[(1S,4S)-2,5-diazabicyclo[2.2.1]heptan-2-yl]-3-methyl-2-pyridyl]-4-methyl-3,4,6,7,9,9a-hexahydro-1H-pyrazino[1,2-a]pyrazin-2-yl]-2-deuterio-quinoline-8-carbonitrile] | 6 | 5
3 | C[C@@H]1CN(c2ccc(C#N)c3ncccc23)C[C@@H]2CN(CCc3ccc(N4CC(C)(N)C4)nc3)CCN21 [Example 65, 5-[(4R,9aS)-8-[2-[6-(3-amino-3-methyl-azetidin-1-yl)-3-pyridyl]ethyl]-4-methyl-3,4,6,7,9,9a-hexahydro-1H-pyrazino[1,2-a]pyrazin-2-yl]quinoline-8-carbonitrile] | 19 | 28
4 | CO[C@@H]1CN(c2nccc(N3CCN4[C@@H](C3)CN(c3ccc(C#N)c5ncccc35)C[C@H]4C)n2)C[C@H]1N [Example 36, 5-[(4R,9aR)-8-[2-[(3R,4R)-3-amino-4-methoxy-pyrrolidin-1-yl]pyrimidin-4-yl]-4-methyl-3,4,6,7,9,9a-hexahydro-1H-pyrazino[1,2-a]pyrazin-2-yl]quinoline-8-carbonitrile] | 13 | 15
5 | [2H]c1ccc2c(N3C[C@@H]4CN(Cc5ccc(N6CC(C)(N)C6)nc5C)CCN4[C@H](C)C3)ccc(C#N)c2n1 [Example 79, 5-[(4R,9aS)-8-[[6-(3-amino-3-methyl-azetidin-1-yl)-2-methyl-3-pyridyl]methyl]-4-methyl-3,4,6,7,9,9a-hexahydro-1H-pyrazino[1,2-a]pyrazin-2-yl]-2-deuterio-quinoline-8-carbonitrile] | 19 | 6
6 | C[C@H]1CN(c2ccc(C#N)c3ncccc23)C[C@@H]2CN(c3ccc([C@@H]4CNCCO4)cc3)CCN21 [Example 125, 5-[(4S,9aS)-4-methyl-8-[4-[(2R)-morpholin-2-yl]phenyl]-3,4,6,7,9,9a-hexahydro-1H-pyrazino[1,2-a]pyrazin-2-yl]quinoline-8-carbonitrile] | 1 | 7
7 | C[C@@H]1CN(c2ccc(C#N)n3ncc(F)c23)C[C@@H]2CN(CCc3ccc(N4CC(C)(N)C4)nc3)CCN21 [Example 74, 4-[(4R,9aS)-8-[2-[6-(3-amino-3-methyl-azetidin-1-yl)-3-pyridyl]ethyl]-4-methyl-3,4,6,7,9,9a-hexahydro-1H-pyrazino[1,2-a]pyrazin-2-yl]-3-fluoro-pyrazolo[1,5-a]pyridine-7-carbonitrile] | 28 | 62
8 | [2H]c1ccc2c(N3C[C@@H]4CN(CCc5ccc(N6C[C@@H](N)[C@H](OC)C6)nc5)CCN4[C@H](C)C3)ccc(C#N)c2n1 [Example 62, 5-[(4R,9aS)-8-[2-[6-[(3R,4R)-3-amino-4-methoxy-pyrrolidin-1-yl]-3-pyridyl]ethyl]-4-methyl-3,4,6,7,9,9a-hexahydro-1H-pyrazino[1,2-a]pyrazin-2-yl]-2-deuterio-quinoline-8-carbonitrile] | 23 | 17
9 | Cc1cc(N2CCN3[C@@H](C2)CN(c2ccc(C#N)c4ncccc24)C[C@H]3C)nc(N2CC(C)(N)C2)n1 [Example 55, 5-[(4R,9aR)-8-[2-(3-amino-3-methyl-azetidin-1-yl)-6-methyl-pyrimidin-4-yl]-4-methyl-3,4,6,7,9,9a-hexahydro-1H-pyrazino[1,2-a]pyrazin-2-yl]quinoline-8-carbonitrile] | 15 | 40
10 | C[C@@H]1CN(c2ccc(C#N)c3ncccc23)C[C@@H]2CN(CCc3ccc(N4CCNCC4)cc3)CCN21 [Example 7, 5-[(4R,9aS)-4-methyl-8-[2-(4-piperazin-1-ylphenyl)ethyl]-3,4,6,7,9,9a-hexahydro-1H-pyrazino[1,2-a]pyrazin-2-yl]quinoline-8-carbonitrile] | 5 | 30
11 | [2H]c1ccc2c(N3C[C@@H]4CN(Cc5ccc(N6CCNCC6)nc5)CCN4[C@H](C)C3)ccc(C#N)c2n1 [Example 78, 5-[(4R,9aS)-4-methyl-8-[(6-piperazin-1-yl-3-pyridyl)methyl]-3,4,6,7,9,9a-hexahydro-1H-pyrazino[1,2-a]pyrazin-2-yl]-2-deuterio-quinoline-8-carbonitrile] | 35 | 17
12 | Cc1cc(N2CCNCC2)ncc1N1CCN2CCN(c3ccc(C#N)c4ncccc34)CC2C1 (stereo not shown) [Example 38, 5-[2-(4-methyl-6-piperazin-1-yl-3-pyridyl)-3,4,6,7,9,9a-hexahydro-1H-pyrazino[1,2-a]pyrazin-8-yl]quinoline-8-carbonitrile] | 2 | 8
13 | Cc1nc(N2CCNCC2)ccc1CN1CCN2[C@@H](C1)CN(c1ccc(C#N)c3ncccc13)C[C@H]2C [Example 60, 5-[(4R,9aS)-4-methyl-8-[(2-methyl-6-piperazin-1-yl-3-pyridyl)methyl]-3,4,6,7,9,9a-hexahydro-1H-pyrazino[1,2-a]pyrazin-2-yl]quinoline-8-carbonitrile] | 8 | 14
14 | CO[C@@H]1CN(c2ccc(CCN3CCN4[C@@H](C3)CN(c3ccc(C#N)c5ncccc35)C[C@H]4C)cn2)C[C@H]1N [Example 12, 5-[(4R,9aS)-8-[2-[6-[(3R,4R)-3-amino-4-methoxy-pyrrolidin-1-yl]-3-pyridyl]ethyl]-4-methyl-3,4,6,7,9,9a-hexahydro-1H-pyrazino[1,2-a]pyrazin-2-yl]quinoline-8-carbonitrile] | 12 | 14
